Consider one compound from article PMC12814185, “Receptor-Mediated Shuttling of a D‑Amino Acid Peptide Achieves High Nanomolar Cytosolic Concentrations” (Journal of the American Chemical Society, 2025).

This series concerns HEK293 cells. In words: Resazurin based cell viability assay, Nutlin-3a. The following applies: 72 h incubation, HEK293 and HEK293_CMKLR1-eYFP. As for the experimental part:
performed in DMEM with 10% FBS due to its higher pH buffering capacity compared to DMEM/F12 with […]
Calcium flux assay was performed with cells expressing CMKLR1 and the chimeric G protein Δ6Gαqi4myr.
The stably transfected COS-7_CMKLR1-eYFP_ Δ6Gαqi4myr cells were seeded at 25,000 cells per well into poly-ᴅ-lysine-coated 96-well plates (black µCLEAR, Greiner). The next day, cells were incubated with 2.3 µM Fluo-2-AM (Abcam) and 0.06% (v/v) Pluronic-F127 (Sigma) in assay buffer (2.5 mM probenecid (Sigma), 20 mM 4-(2-hydroxyethyl)-1-piperazineethanesulfonic acid (HEPES, Sigma) in Hanks' Balanced Salt Solution (HBSS, Biowest), pH 7.5) for 1 h. This solution was replaced by assay buffer, and basal Ca2+ signal (λex = 485 nm, λem = 525 nm) was measured for 20 s with a Flexstation 3 plate reader (Molecular Devices). Peptide dilutions were added, and the Ca2+ response was measured for 40 s. The maximum signal over baseline was calculated and normalized to peptide 1 (N3-cC9). Non-linear regression was performed using Prism 10 (GraphPad). Experiments were performed in technical duplicates and at least […]
Cells were then washed and a resazurin-based cell viability assay was performed. […] After 2h incubation, cell viability wa s measured using the fluorescence of resorufin (λex = 550 nm, λem = 595 nm). […]
Peptide internalization was evaluated by fluorescence microscopy. […]
A general note: The colour change of resazurin is a common sign of viable cells or microbes.

Turning to `COc1ccc(C2=N[C@@H](c3ccc(Cl)cc3)[C@@H](c3ccc(Cl)cc3)N2C(=O)N2CCNC(=O)C2)c(OC(C)C)c1` [nutlin-3a], the cytotoxicity result is given as “noncytotoxic response”.
